From patent US6723708B2, “Use of lithium (Li+) for the preparation of a composition for transfection of a polynucleotide into a cell and compositions useful in gene therapy” (Transgene S.A., priority 1999, dated 2004) come the findings set out here.

For the experiment, the system named is tibialis anterior muscles. Put plainly: Intramuscular transfection of plasmid pTG11033 with LiCl, luciferase activity in muscle extracts. Format: in vivo, C57BL/10 mice. Conditions: pTG11033 25 μg/muscle intramuscular with LiCl 0.1, 1, 10 mM; measured 7 days after injection; versus NaCl 0.9% control. On the procedure:
Plasmid DNA (pTG11033: CMV promoter, β-globin intron, luciferase cassette—WO 98/34910) was prepared according to Bischoff et al., Analytical Biochemistry 254 (1997), 69-81. Prior to intramuscular injection the tested molecules were mixed with the plasmid DNA preparation. 25 μg of plasmid DNA were injected per muscle into 5 to 10 week-old C57BL/10 mice. The 2 tibialis anterior (right and left) muscles were injected (each muscle was considered as a sample). Furthermore, for each condition, both the lowest and highest luciferase acitvity values were omitted, which means number of sample per condition=(2×number of mice per condition)−2.
One week after injection of the composition, the mice were killed and the tibialis anterior muscles were retrieved and frozen. Luciferase activity was quantified on whole muscle extracts using a conventional measurement kit (Luciferase Assay System, Promega). Briefly, muscles were ground separately and diluted in 200 μl of reporter lysis buffer (Promega). 10 μl-samples were placed in 96 well-plates and mixed with 100 μl of substrate. Luciferase activity was expressed as number of RLU emitted per minute, per mg of protein.
Protein was measured on 10 μl samples using a VCA Protein Assay kit (Pierce).
In this example, the stock solution of plasmid pTG11033 was prepared in TE buffer (Tris 10 mM—EDTA 1 mM) at a nucleic acid concentration of […]. […]

Structures are written as SMILES.

As to `[Cl-].[Li+]` [LiCI, lithium chloride], the “increase of luciferase activity in the injected muscles” value is reported as “around 5 times”.
